Assay results: patent US8192989B2, “Solid surface for biomolecule delivery and high-throughput assay” (Nitto Denko Corporation, priority 2003, dated 2012)

Experiments:
[1] = tested on: 293 cells; experiment: Effect of membrane disturbing peptide on PLL-laminin mediated gene transfer; assay type: cell-based; settings: membrane disturbing peptide in PLL-laminin based transfectable surface, 96-well (FIG. 28)
[2] = tested on: 293 cells; experiment: Cytotoxicity assay - MTT assay after transfection; assay type: cell-based
Experimental: Glutamine (100 mmol/L) and different transfection reagents (NDT-CP-B-1, NDT-CP-1, Superfect and lipofectamine 2000) were diluted in 0.2% gelatin solution, and 25 μl of the solution containing Glutamine/transfection reagent/gelatin was added into a 96 well plate and allowed to air dry. Then 25 μl GFP plasmid solution in opti MEM (20.0 μg/ml) was added into each well and incubated at room temperature for 25 min. The dried plate was ready for use (FIG. 32).
In this experiment, 0.2% gelatin or 0.2% gelatin and 40.0 μg/ml laminin mixture was used for diluting transfection reagents NDT-CP-B-1, NDT-CP-1, NDT-LP-1 NDT-LP-2, Superfect and lipofectamine 2000, and 25 μl solution was added into 96 well plate. The amounts of NDT polymers used in each well were 8, 4 or 2 μg, respectively, the amounts of Superfect were 15, 7.5 and 3.8 μg/well respectively, and the amounts of lipofectamine 2000 were 2.5, 1.25 and 0.63 μg/well respectively. […] The transfection efficiency and cytotoxicity were analyzed by fluorescent microscope and MTT assay (FIG. 33).
The cytotoxicities of transfection reagents on mammalian cells were evaluated using 3-[4,5 dimethylthiazol-2-yl]-2,5-diphenyltetrazolium bromide (MTT) method. […] The absorbance of the solution was measured at 570 nm. Cell viabilities was calculated using the equation: Viability (%)={Abs570 (sample)/Abs570 (control)}×100 (FIG. 31).

## RRRQGTWLNPGFPPQSCGYATVTDARRR (Chemically synthesized peptide corresponding to viral envelope protein VSVG) [VSVG peptide]
[1]
  effect on transfection efficiency: significantly enhance transfection efficiency

## laminin
[2]; cell attaching reagent in transfection reagents-gelatin surface, with versus without laminin (FIG. 33)
  effect on cytotoxicity caused by transfection reagents and procedures: significantly improved cytotoxicity

## NC(=O)CC[C@H](N)C(=O)O [glutamine, Glutamine]
[2]; cytoreductive reagent added to transfectable surface, with versus without glutamine (FIG. 32)
  effect on transfection cytotoxicity: significantly improved transfection cytotoxicity
